Results taken from the Kinase Knowledgebase extract (Sharma et al. 2016).

What was measured:
EGFR (human) [1] = target: EGFR (human) (UniProt P00533); conditions: mda-mb-231
EGFR (human) [2] = target: EGFR (human) (UniProt P00533); conditions: mda-mb-361
EGFR (human) [3] = target: EGFR (human) (UniProt P00533); conditions: mda-mb-231; remark: listed apart in the source
EGFR (human) [4] = target: EGFR (human) (UniProt P00533); conditions: mda-mb-231; remark: listed apart in the source

Chain of EGFR (human) (P00533 whole entry, looked up): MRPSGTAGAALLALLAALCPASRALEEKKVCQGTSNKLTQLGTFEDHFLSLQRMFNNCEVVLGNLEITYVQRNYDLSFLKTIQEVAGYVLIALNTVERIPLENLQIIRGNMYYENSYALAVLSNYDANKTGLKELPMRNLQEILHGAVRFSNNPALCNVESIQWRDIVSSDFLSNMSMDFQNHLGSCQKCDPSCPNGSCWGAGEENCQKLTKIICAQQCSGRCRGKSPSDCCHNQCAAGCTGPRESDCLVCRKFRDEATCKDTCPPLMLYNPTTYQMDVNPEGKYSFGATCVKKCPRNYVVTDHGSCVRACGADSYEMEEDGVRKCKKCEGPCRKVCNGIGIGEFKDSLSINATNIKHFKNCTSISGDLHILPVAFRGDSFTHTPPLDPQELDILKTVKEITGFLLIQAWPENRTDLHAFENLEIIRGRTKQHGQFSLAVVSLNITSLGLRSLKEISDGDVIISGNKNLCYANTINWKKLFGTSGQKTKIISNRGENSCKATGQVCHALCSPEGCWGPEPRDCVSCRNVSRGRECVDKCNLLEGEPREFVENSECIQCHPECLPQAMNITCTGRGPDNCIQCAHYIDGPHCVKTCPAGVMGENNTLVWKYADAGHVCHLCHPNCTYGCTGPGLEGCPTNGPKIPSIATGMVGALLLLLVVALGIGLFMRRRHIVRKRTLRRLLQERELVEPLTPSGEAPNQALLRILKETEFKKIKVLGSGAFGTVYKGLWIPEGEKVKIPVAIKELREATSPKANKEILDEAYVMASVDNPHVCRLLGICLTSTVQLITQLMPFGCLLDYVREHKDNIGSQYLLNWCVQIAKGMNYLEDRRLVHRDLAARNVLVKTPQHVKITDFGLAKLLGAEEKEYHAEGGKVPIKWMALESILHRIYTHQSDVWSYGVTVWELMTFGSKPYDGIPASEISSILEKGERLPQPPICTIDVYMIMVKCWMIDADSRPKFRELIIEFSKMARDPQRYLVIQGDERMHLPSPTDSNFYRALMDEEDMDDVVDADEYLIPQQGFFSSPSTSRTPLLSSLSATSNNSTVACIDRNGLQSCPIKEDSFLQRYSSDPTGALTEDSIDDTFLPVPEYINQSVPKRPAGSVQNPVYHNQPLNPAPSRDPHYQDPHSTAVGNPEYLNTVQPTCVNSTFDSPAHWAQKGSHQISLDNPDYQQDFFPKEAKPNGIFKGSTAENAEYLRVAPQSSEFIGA

Structure (SMILES) | IC50 (EGFR (human) [1]) [µM] | IC50 (EGFR (human) [2]) [µM] | IC50 (EGFR (human) [3]) [µM] | IC50 (EGFR (human) [4]) [µM]
C/C(O)=C(\C#N)C(=O)Nc1ccc(Cl)cc1 | > 100 | > 300 | > 300 | 
C/C(O)=C(\C#N)C(=O)Nc1ccccc1Br | > 100 | > 300 | > 300 | 
C/C(O)=C(\C#N)C(=O)Nc1ccc(OC(F)(F)F)cc1 |  | 26.3 | 53.4 | 28.4
C/C(O)=C(\C#N)C(=O)Nc1cc(Br)ccc1Br | > 100 | > 300 | > 300 | 
C/C(O)=C(\C#N)C(=O)Nc1ccccc1F | 74.5 | > 300 | > 300 | 
C/C(O)=C(\C#N)C(=O)Nc1ccc(C(F)(F)F)cc1 | 5.4 | 190 | 199 | 97
C/C(O)=C(\C#N)C(=O)Nc1ccccc1Cl | > 100 | > 300 | > 300 | 
C/C(O)=C(\C#N)C(=O)Nc1ccc(F)cc1 | > 100 | > 300 | > 300 | 
C/C(O)=C(\C#N)C(=O)Nc1cccc(Br)c1 | > 100 | > 300 | > 300 | 
C/C(O)=C(\C#N)C(=O)Nc1ccccc1C(F)(F)F | > 100 | > 300 | > 300 | 
C/C(O)=C(\C#N)C(=O)Nc1cccc(F)c1 | > 100 | > 300 | > 300 | 
C/C(O)=C(\C#N)C(=O)Nc1ccccc1 | > 100 | > 300 | > 300 | 
C/C(O)=C(\C#N)C(=O)Nc1cccc(Cl)c1 | > 100 | > 300 | > 300 | 
C/C(O)=C(\C#N)C(=O)Nc1ccc(Br)cc1 | > 100 | > 300 | > 300 | 
C/C(O)=C(\C#N)C(=O)Nc1cccc(C(F)(F)F)c1 | > 100 | > 300 | > 300 | 
